{
  "source": "patent US20050032863A1",
  "about": "“Method of treating or preventing central nervous system disorders with compounds having selectivity for the alpha 3 subunit of the benzodiazepine receptor” (priority 2003, published 2005)",
  "key": {"locomotor activity": {"test_system": "locomotor activity", "conditions": "open field test and different animal models of anxiety; cited from earlier work"}, "[1]": {"test_system": "extracellular 5-HT, HIAA and dopamine in the striatum of rats", "test": "Microdialysis in the striatum of rats (Example 3)", "type": "in vivo, rat", "conditions": "30 mg/kg i.p.", "description": "The day before the experiment, male rats were anaesthetised with chloral hydrate (3.6%, 1 ml/100 g i.p.) and placed in a stereotaxic frame to implant a microdialysis guide cannula (CMA/12, Carnegie Medicine, Sweden). Scalp was incised in the median anterior-posterior direction between lambda and bregma and a small hole was drilled into the skull. The stereotaxic coordinates were AP=+1.0 mm, L=−3.0 mm from bregma and 1.5 mm from the skull surface for the striatum according to the atlas of Paxinos and Watson, (1986) (1). Dental cement (Sinfony(2)) was used to fix the guide cannula and anchor screws to the cranium. During the surgery rectal temperature was maintained at 37° C. using a heating blanket.\nThe day before the experiment the microdialysis probe (CMA/12, membrane length 4 mm, Carnegie Medicin, Sweden) was inserted into the striatum through the guide cannula. On the day of experiment the probe was perfused with Ringer solution (148 mM NaCl, 4 mM KCl, 2,4 mM CaCl2, pH=6,0). The flow rate (1 μl/min) allowed to collect 20 μl samples every 20 minutes into microvials. Microvials were stored in a fraction collector (CMA/170) at a temperature of 8° C. until analysed. Using a swivel joint the perfusion arrangement allowed the animal to move freely within a hemispherical bowl. After an adjusting time of one hour 3 consecutive 20-min-fractions were collected to establish a stable basal level of neurotransmitter release.\nThereafter 30 mg/kg E131-00139 or an equivalent volume of 0.5% tylose/PEG300 9:1, respectively, was administered. Then collecting samples was continued for at least 220 minutes.\nDialysates were directly analysed by reverse-phase high-performance liquid chromatography with electrochemical detection (HPLC-EC). The samples were separated by a ZORBAX SB-Aq 2.1 mm ID×100 mm column (Agilent Technologies). […]\nTherefore data of each animal were expressed as percentages. Data from dialysates before administering the substances were averaged, and the mean set as 100%; all individual values were calculated accordingly."}, "[2]": {"target": "T1, recombinant rat α5β2γ2 GABAA receptors (Rattus norvegicus, UniProt P19969)", "T1 construct": "expressed in transfected cells; host or cells: HEK 293", "T1 sequence (P19969 32-464 limits assumed)": "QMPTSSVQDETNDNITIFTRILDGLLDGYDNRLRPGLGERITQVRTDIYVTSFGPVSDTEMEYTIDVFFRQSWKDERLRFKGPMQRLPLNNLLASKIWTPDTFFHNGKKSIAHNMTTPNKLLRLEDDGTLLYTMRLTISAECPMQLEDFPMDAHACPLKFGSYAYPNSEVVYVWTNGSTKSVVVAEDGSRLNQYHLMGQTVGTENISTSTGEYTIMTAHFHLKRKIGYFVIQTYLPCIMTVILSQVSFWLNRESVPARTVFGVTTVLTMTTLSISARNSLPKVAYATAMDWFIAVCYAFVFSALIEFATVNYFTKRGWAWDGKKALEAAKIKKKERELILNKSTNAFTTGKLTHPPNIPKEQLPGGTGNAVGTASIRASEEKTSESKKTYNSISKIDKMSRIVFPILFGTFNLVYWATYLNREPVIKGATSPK", "test": "Whole-cell patch-clamp, modulation of GABA (EC20)-induced currents in transfected HEK 293 cells, α5β2γ2", "type": "cell-based", "description": "(§1) For electrophysiological recording HEK-293 cells were passaged and replated on 12-mm glass coverslips located in 9.6-cm plastic dishes filled with 10 ml of Minimum Essential Medium (MEM, Gibco) supplemented with 158 mg/l sodium bicarbonate, 2 mM glutamine (Gibco), 100 U/ml penicillin-streptomycin (Gibco), and 10% foetal calf serum (Gibco). Cultures were maintained at 37° C. in a humidified […]/5% CO2 atmosphere for 2-3 days.\n(§2) Transfection with recombinant rat GABAA receptors was carried out as described in detail (Korpi and Lüddens, 1993, Lüddens and Korpi, 1995b). Briefly, HEK 293 cells were transfected in triple combinations using the phosphate precipitation method with rat GABAA receptor cDNAs in eukaryotic expression vectors (Pritchett, 1990) for the α, β and γ subunits. For optimal receptor expression, final concentrations (μg vector DNA per 9.6 cm tissue culture plate) were: α1, 2; α2 4.8; α3, 1.2; α4, 10; α5, 0.8; β2, 0.4; and γ2S, 0.3. The γ2S variant is abbreviated γ2 in the remainder of the text. To identify transfected cells all subunit combinations were co-transfected with 1 μg per plate of pNI-EGFP.\n(§3) Two days after transfection single coverslips containing HEK 293 cells were placed in a recording chamber mounted on the movable stage of a fluorescence microscope (Olympus IX70) and perfused with a defined saline solution containing (in mM): 130 NaCl, 5.4 KCl, 2 CaCl2, 2 MgSO4, 10 glucose, 5 sucrose, and 10 HEPES (free acid), pH adjusted to 7.35 with about 35 mM NaOH. Transfected cells were identified by their green fluorescence due to the expression of the pNI-EGFP vector and ligand-mediated membrane currents of these cells were studied in the whole-cell configuration of the patch-clamp technique (Hamil et al., 1981). Patch-clamp pipettes were pulled from hard borosilicate capillary glass (0.5 mm ID, 1.5 mm OD, Vitrex, Science Products GmbH, Hofheim, Germany) using a horizontal puller (Sutter Instruments, CA, Model P-97) in a multi-stage process.\n(§4) Seal resistances >1 GΩ were routinely obtained by applying gentle suction to the pipettes. Membrane rupture was monitored electrically as an increase in capacity. Pipette capacitance, membrane capacitance, and series resistance were electronically compensated to achieve minimal capacitative transients. A series resistance compensation of >60% was regularly used.\n(§5) In all cells recorded the presence of the γ2 subunit in the heteropentamere was monitored by the application of 1 μM zolpidem plus the EC20 of GABA before testing the experimental drugs.\n(§6) Responses of the cells were recorded by a patch-clamp amplifier (EPC-8, HEKA-Electronic, Lambrecht, Germany) in conjunction with a standard personal computer and the pClamp 8.1 software package (Axon Instruments, Foster City, Calif.). The standard holding-potential for the cells was −40 mV. Whole cell currents were low-pass filtered by an eight-pole Bessel filter at 5 or 3 kHz before being digitised by a Digidata 1322A interface (Axon Instruments, Foster City, Calif.) and recorded by the computer at a sampling rate of at least […].\n(§7) Efficacy, potency, and GABAA receptor a subunit specificity of the new compound ELB139 was tested with the whole cell configuration of the patch-clamp technique by applying increasing drug concentration together with GABA of the approximate EC20 on green fluorescing cells. BZ binding site specificity of the new compound was tested on the same cells in an identical experimental setting with additionally applying 10 μM Ro15-1788."}, "[3]": {"target": "T2, recombinant rat α1β2γ2 GABAA receptors (Rattus norvegicus, UniProt P62813)", "T2 construct": "expressed in transfected cells; host or cells: HEK 293", "T2 sequence (P62813 28-455)": "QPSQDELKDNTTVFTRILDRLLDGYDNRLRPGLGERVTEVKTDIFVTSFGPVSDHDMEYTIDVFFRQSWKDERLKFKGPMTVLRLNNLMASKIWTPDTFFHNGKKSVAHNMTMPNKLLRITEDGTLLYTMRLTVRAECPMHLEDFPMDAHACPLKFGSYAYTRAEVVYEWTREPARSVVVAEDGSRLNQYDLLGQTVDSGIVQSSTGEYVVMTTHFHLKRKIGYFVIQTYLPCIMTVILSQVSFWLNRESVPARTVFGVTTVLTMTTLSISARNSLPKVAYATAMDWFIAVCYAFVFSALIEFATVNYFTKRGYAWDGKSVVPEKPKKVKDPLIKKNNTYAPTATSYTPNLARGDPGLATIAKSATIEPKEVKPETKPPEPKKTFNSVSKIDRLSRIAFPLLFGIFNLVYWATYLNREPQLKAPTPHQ", "test": "Whole-cell patch-clamp, modulation of GABA (EC20)-induced currents in transfected HEK 293 cells, α1β2γ2", "type": "cell-based", "description": "as §1, §2, §3, §4, §5, §6, §7"}},
  "note": "Where “and” joins values, the source holds several entries; their conditions need not be identical. Identical values can stand only once.",
  "data": [
    {"smiles": "O=C1N=C(N2CCCCC2)CN1c1ccc(Cl)cc1", "note": "[ELB139, 1-(4-chlorophenyl)-4-piperidinoimidazolin-2-one]", "values": [
      {"measurement": "locomotor activity", "setting": "locomotor activity", "result": "did not show a significant reduction"},
      {"measurement": "HIAA concentration in the striatum", "setting": "[1]", "result": "without influencing"},
      {"measurement": "dopamine concentration in the striatum", "setting": "[1]", "result": "did also not influence"},
      {"measurement": "5-HT concentration in the striatum", "setting": "[1]; vs tylose vehicle", "result": "significantly and unexpectedly increased"},
      {"measurement": "EC50", "setting": "[2]; applied with approximate GABA EC20, read-out: EC50 (ELB139)", "result": 3.6, "unit": "µM"},
      {"measurement": "effect of 10 μM Ro15-1788 on the current enhancement by the compound", "setting": "[2]; co-applied 10 μM Ro15-1788 (flumazenil)", "result": "completely abolished"},
      {"measurement": "maximal positive modulation of GABA-induced current", "setting": "[2]; maximum at 30 μM (ELB139), at 1 μM (diazepam)", "result": "1.4±0.06 fold and 1.4 fold"},
      {"measurement": "Potentiation* (ELB139)", "setting": "[2]; with GABA EC20, graphically determined", "result": "1.4 ± 0.06"},
      {"measurement": "concentration at which positive current modulation was observable", "setting": "[3]; α1-containing receptors", "result": 0.3, "unit": "µM"},
      {"measurement": "maximal positive modulation of GABA-induced current", "setting": "[3]; α1-containing receptors, maximum at 30 μM (ELB139), at 1 μM (diazepam)", "result": "1.6±0.08 fold and 1.6 fold"},
      {"measurement": "concentration at which significant agonistic effects were noticeable", "setting": "[3]; α1β2γ2", "result": "about 1 μM"},
      {"measurement": "EC50", "setting": "[3]; α1β2γ2, applied with approximate GABA EC20, read-out: EC50 (ELB139)", "result": 3.8, "unit": "µM"},
      {"measurement": "effect of 10 μM Ro15-1788 on the current enhancement by the compound", "setting": "[3]; α1β2γ2, co-applied 10 μM Ro15-1788 (flumazenil)", "result": "completely abolished"},
      {"measurement": "Potentiation* (ELB139)", "setting": "[3]; α1β2γ2, with GABA EC20, graphically determined", "result": "1.6 ± 0.08"}
    ]}
  ]
}
